{"source": "patent US8716320B2", "about": "“Antibacteriall heterocyclic ureas” (Replidyne, Inc., priority 2006, dated 2014)", "key": {"S. pyogenes PolC": {"molecular_target": "S. pyogenes PolC (Streptococcus pyogenes, UniProt Q8NZB5)", "sequence (Q8NZB5 whole entry)": "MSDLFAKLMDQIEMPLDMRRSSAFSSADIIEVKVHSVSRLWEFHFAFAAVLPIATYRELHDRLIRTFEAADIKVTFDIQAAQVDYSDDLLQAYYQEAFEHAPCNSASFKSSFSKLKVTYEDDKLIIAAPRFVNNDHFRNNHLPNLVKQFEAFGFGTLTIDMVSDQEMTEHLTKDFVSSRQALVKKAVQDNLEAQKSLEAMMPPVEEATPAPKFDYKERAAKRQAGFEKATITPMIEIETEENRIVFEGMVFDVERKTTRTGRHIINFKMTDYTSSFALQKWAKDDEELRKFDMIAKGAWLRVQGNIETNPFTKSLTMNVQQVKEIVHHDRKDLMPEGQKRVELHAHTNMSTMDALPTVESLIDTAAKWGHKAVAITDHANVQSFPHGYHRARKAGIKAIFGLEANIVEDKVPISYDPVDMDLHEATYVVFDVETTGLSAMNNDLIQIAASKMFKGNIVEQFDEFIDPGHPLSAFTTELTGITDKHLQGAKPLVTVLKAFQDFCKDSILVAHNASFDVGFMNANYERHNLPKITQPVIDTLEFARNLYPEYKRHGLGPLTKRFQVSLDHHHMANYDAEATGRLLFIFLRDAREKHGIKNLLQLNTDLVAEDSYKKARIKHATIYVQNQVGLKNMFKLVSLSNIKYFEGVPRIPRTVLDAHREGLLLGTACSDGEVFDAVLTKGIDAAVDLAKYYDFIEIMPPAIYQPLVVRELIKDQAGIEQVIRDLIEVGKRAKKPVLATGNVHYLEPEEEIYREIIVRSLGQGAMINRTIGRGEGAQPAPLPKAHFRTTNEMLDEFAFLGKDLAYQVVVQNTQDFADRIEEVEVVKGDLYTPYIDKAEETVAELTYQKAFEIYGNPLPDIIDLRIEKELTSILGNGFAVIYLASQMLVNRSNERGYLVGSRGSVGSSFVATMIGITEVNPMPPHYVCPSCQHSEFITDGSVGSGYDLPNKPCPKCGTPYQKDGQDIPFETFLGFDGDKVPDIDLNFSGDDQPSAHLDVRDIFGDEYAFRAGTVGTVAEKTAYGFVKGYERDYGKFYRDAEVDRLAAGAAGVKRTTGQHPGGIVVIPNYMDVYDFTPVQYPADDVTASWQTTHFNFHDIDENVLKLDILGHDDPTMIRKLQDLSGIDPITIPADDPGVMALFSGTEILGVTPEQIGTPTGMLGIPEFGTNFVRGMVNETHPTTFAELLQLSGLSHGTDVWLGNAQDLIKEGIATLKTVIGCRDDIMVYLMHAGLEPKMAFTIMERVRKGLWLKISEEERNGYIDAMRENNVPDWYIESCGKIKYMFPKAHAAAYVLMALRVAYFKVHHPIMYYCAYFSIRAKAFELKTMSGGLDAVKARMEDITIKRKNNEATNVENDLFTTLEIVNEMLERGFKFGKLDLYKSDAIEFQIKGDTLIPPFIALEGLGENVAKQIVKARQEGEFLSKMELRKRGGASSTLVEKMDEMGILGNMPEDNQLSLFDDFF", "assay": "Inhibition of PolC primer extension activity (scintillation proximity assay)", "format": "biochemical", "conditions": "serial 2-fold dilutions, XLfit", "experimental": "The polC gene from Streptococcus pyogenes was overexpressed and PolC was purified as described in PCT/JUS05/15548. Primer extension activity of PolC was measured using 1 μM oligonucleotide primer-template (primer strand 5′-ACCAGTGAGACGGGCAACA (SEQ ID NO: 1), template strand 5′-[…] SEQ ID NO: 2)). Reactions contained 10 mM magnesium acetate, 50 mM Tricine/Tris pH 7.8, 2.4% (w/v) polyethylene glycol (˜8000 MW), 0.024% pluronic F68, 1 mM dithiothreitol, 20 μM dATP, 20 μM dCTP, 0.5 μM dGTP, 0.72 μM dTTP, 0.28 μM 3H-dTTP (0.005 μCi/μL), 8% DMSO and 15 nM PolC. Reactions (25 μL) were incubated for 10 minutes at room temperature and stopped by addition of an equal volume of 100 mM EDTA. Incorporation of radiolabelled dTTP was measured by scintillation proximity assay by addition of 100 μL of 1 mg/mL PEI-PVT beads in 300 mM citrate pH 3.0.\nCompounds of formula (I) were tested for inhibition of S. pyogenes PolC activity. Serial 2-fold dilutions of compounds were tested for inhibition of PolC activity and IC50's were determined (XLfit). […] These compounds were specific for prokaryotic DNA polymerase, showing little or no inhibition of eukaryotic S. cerevisiae polymerase delta at concentrations up to 160 μM."}, "[1]": {"system": "S. aureus, S. pneumoniae, S. pyogenes, and E. faecalis", "assay": "Broth microdilution MIC (CLSI), major Gram-positive organisms", "format": "cell-based", "conditions": "against some strains of S. aureus", "experimental": "(§1) Compounds of the present invention were tested for antibacterial activity against a variety of pathogenic organisms including S. aureus, S. pneumoniae, S. pyogenes, E. faecalis, H. influenza and M. catarrhalis using a standard broth microdilution method to determine their minimum inhibitory concentrations (MICs). All compounds were tested using standard methods in accordance with CLSI guidelines (Clinical and Laboratory Standards Institute). […] Compounds of the present invention were not compromised by existing resistance to all drug classes tested, including β-lactams, glycopeptides, oxazolidinones, macrolides, and fluoroquinolones. In particular, the compound described in Example 31 was active against methicillin-(oxacillin-) resistant S. aureus (MRSA), vancomycin-intermediate S. aureus (VISA), linezolid-resistant S. aureus, methicillin-(oxacillin-) resistant S. epidermidis, macrolide-resistant S. pyogenes, macrolide-, penicillin-, and levofloxacin-resistant S. pneumoniae, and vancomycin-resistant E. faecalis (VRE)."}, "S. aureus": {"system": "S. aureus", "assay": "Time kill kinetic studies", "format": "cell-based"}, "S. pyogenes": {"system": "S. pyogenes", "assay": "Time kill kinetic studies", "format": "cell-based"}, "[2]": {"system": "MRSA, vancomycin-resistant E. faecalis (VRE), vancomycin-resistant E. faecium and macrolide-resistant S. pyogenes", "assay": "MIC90 against resistant Gram-positive bacteria", "format": "cell-based, S. aureus", "experimental": "as §1"}, "S. epidermidis": {"system": "S. epidermidis", "assay": "Time kill kinetic studies", "format": "cell-based"}, "S. pneumoniae": {"system": "S. pneumoniae", "assay": "Time kill kinetic studies", "format": "cell-based"}, "[3]": {"system": "macrolide-, penicillin-, and levofloxacin-resistant S. pneumoniae", "assay": "Antibacterial activity against resistant strains (MIC)", "format": "cell-based", "experimental": "as §1"}, "[4]": {"system": "vancomycin-resistant E. faecalis (VRE)", "assay": "Antibacterial activity against resistant strains (MIC)", "format": "cell-based", "experimental": "as §1"}, "[5]": {"system": "methicillin-(oxacillin-) resistant S. epidermidis", "assay": "Antibacterial activity against resistant strains (MIC)", "format": "cell-based", "experimental": "as §1"}, "[6]": {"system": "vancomycin-, macrolide-, and ciprofloxacin-resistant E. faecium", "assay": "Antibacterial activity against resistant strains (MIC)", "format": "cell-based", "experimental": "as §1"}, "[7]": {"system": "vancomycin-intermediate S. aureus (VISA)", "assay": "Antibacterial activity against resistant strains (MIC)", "format": "cell-based", "experimental": "as §1"}, "[8]": {"system": "methicillin-(oxacillin-) resistant S. aureus (MRSA)", "assay": "Antibacterial activity against resistant strains (MIC)", "format": "cell-based", "experimental": "as §1"}, "[9]": {"system": "linezolid-resistant S. aureus", "assay": "Antibacterial activity against resistant strains (MIC)", "format": "cell-based", "experimental": "as §1"}, "[10]": {"system": "macrolide-resistant S. pyogenes", "assay": "Antibacterial activity against resistant strains (MIC)", "format": "cell-based", "experimental": "as §1"}, "E. faecium": {"system": "E. faecium", "assay": "Time kill kinetic studies", "format": "cell-based"}, "[11]": {"system": "clinically relevant resistant strains", "assay": "MICs in clinically relevant resistant strains (all listed strains together)", "format": "cell-based", "conditions": "for MIC: range over the resistant strains listed", "experimental": "as §1"}, "E. faecalis": {"system": "E. faecalis", "assay": "Time kill kinetic studies", "format": "cell-based"}}, "data": [{"smiles": "COCc1csc(NC(=O)NCc2ccc(Cl)c(Cl)c2)n1", "note": "[Example 19, 1-(3,4-Dichlorobenzyl)-3-(4-(methoxymethyl)thiazol-2-yl)urea]", "values": [{"measurement": "IC50", "setting": "S. pyogenes PolC", "value": "0.11 to 25", "unit": "µM"}]}, {"smiles": "CCCCOCc1csc(NC(=O)NCc2ccc(Cl)c(Cl)c2)n1", "note": "[Example 21, 1-(3,4-Dichlorobenzyl)-3-(4-(butoxymethyl)thiazol-2-yl)urea]", "values": [{"measurement": "MIC", "setting": "[1]", "value": "0.12 to 4", "unit": "µg/mL"}]}, {"smiles": "CS(=O)(=O)CCOCc1csc(NC(=O)NCc2ccc(Cl)c(Cl)c2)n1", "note": "[Example 28, 1-(3,4-Dichlorobenzyl)-3-(4-((2-(methylsulfonyl)ethoxy)methyl)thiazol-2-yl)urea]", "values": [{"measurement": "time kill kinetics result", "setting": "S. aureus", "value": "bactericidal"}, {"measurement": "time kill kinetics result", "setting": "S. pyogenes", "value": "bactericidal"}, {"measurement": "MIC90", "setting": "[2]", "value": "1 to 8", "unit": "µg/mL"}, {"measurement": "time kill kinetics result", "setting": "S. epidermidis", "value": "bactericidal"}, {"measurement": "time kill kinetics result", "setting": "S. pneumoniae", "value": "bactericidal"}, {"measurement": "activity against resistant strain", "setting": "[3]", "value": "active"}, {"measurement": "activity against resistant strain", "setting": "[4]; vancomycin-, macrolide-, and ciprofloxacin-resistant E. faecalis (VRE)", "value": "active"}, {"measurement": "activity against resistant strain", "setting": "[5]; methicillin-(oxacillin-) resistant and mupirocin resistant S. epidermidis", "value": "active"}, {"measurement": "activity against resistant strain", "setting": "[6]", "value": "active"}, {"measurement": "activity against resistant strain", "setting": "[7]", "value": "active"}, {"measurement": "activity against resistant strain", "setting": "[8]", "value": "active"}, {"measurement": "activity against resistant strain", "setting": "[9]", "value": "active"}, {"measurement": "activity against resistant strain", "setting": "[10]", "value": "active"}, {"measurement": "time kill kinetics result", "setting": "E. faecium", "value": "bactericidal"}, {"measurement": "MICs in sensitive versus drug resistant strains", "setting": "[11]", "value": "comparable"}, {"measurement": "MIC", "setting": "[11]", "value": "0.5 to 4", "unit": "µg/mL"}, {"measurement": "time kill kinetics result", "setting": "E. faecalis", "value": "bactericidal"}]}, {"smiles": "O=C(NCc1ccc(Cl)c(Cl)c1)Nc1nc(COCCO)cs1", "note": "[Example 31, 1-(3,4-Dichloro-benzyl)-3-[4-(2-hydroxy-ethoxymethyl)-thiazol-2-yl]-urea]", "values": [{"measurement": "time kill kinetics result", "setting": "S. aureus", "value": "bactericidal"}, {"measurement": "time kill kinetics result", "setting": "S. pneumoniae", "value": "bactericidal"}, {"measurement": "activity against resistant strain", "setting": "[3]", "value": "active"}, {"measurement": "activity against resistant strain", "setting": "[4]; vancomycin-resistant E. faecalis (VRE)", "value": "active"}, {"measurement": "activity against resistant strain", "setting": "[5]; methicillin-(oxacillin-) resistant S. epidermidis", "value": "active"}, {"measurement": "activity against resistant strain", "setting": "[7]", "value": "active"}, {"measurement": "activity against resistant strain", "setting": "[8]", "value": "active"}, {"measurement": "activity against resistant strain", "setting": "[9]", "value": "active"}, {"measurement": "activity against resistant strain", "setting": "[10]", "value": "active"}, {"measurement": "MICs in sensitive versus drug resistant strains", "setting": "[11]", "value": "comparable"}, {"measurement": "MIC", "setting": "[11]", "value": "1 to 32", "unit": "µg/mL"}, {"measurement": "time kill kinetics result", "setting": "E. faecalis", "value": "bactericidal"}]}, {"smiles": "O=C(NCc1ccc(Cl)c(Cl)c1)Nc1nc(CO)cs1", "note": "[Example 39, 1-(3,4-Dichlorobenzyl)-3-(4-(hydroxymethyl)thiazol-2-yl)urea]", "values": [{"measurement": "IC50", "setting": "S. pyogenes PolC", "value": "0.11 to 25", "unit": "µM"}, {"measurement": "MIC", "setting": "[1]", "value": "0.12 to 4", "unit": "µg/mL"}]}, {"smiles": "COCCOCc1csc(NC(=O)NCc2ccc3c(c2)OCO3)n1", "note": "[Example 52, 1-Benzo[1,3]dioxol-5-ylmethyl-3-[4-(2-methoxy-ethoxymethyl)-thiazol-2-yl]-urea]", "values": [{"measurement": "MIC", "setting": "[1]", "value": "0.12 to 4", "unit": "µg/mL"}]}, {"smiles": "COCCOCc1csc(NC(=O)NCc2ccc(Br)cc2)n1", "note": "[Example 56, 1-(4-bromobenzyl)-3-(4-((2-methoxyethoxy)methyl)thiazol-2-yl)urea]", "values": [{"measurement": "IC50", "setting": "S. pyogenes PolC", "value": "0.11 to 25", "unit": "µM"}]}, {"smiles": "CC(=O)Nc1ccc(SCc2csc(NC(=O)NCc3ccc(Cl)c(Cl)c3)n2)cc1", "note": "[Example 149, 1-(3,4-dichlorobenzyl)-3-(4-((4-acetamidophenylthio)methyl)thiazol-2-yl)urea]", "values": [{"measurement": "MIC", "setting": "[1]", "value": "0.12 to 4", "unit": "µg/mL"}]}]}
